Laboratory results reported in US20260250290A1 (BRISTOL-MYERS SQUIBB COMPANY, priority 2023, published 2026).
Structures can show the parent of a compound that is named as a salt.

biological target: T1, full length SGK1 (Homo sapiens, UniProt O00141); test: SGK1 inhibition Assay A (Caliper LabChip electrophoretic separation of fluorescent peptide substrate and phosphorylated product); type: biochemical; conditions: Assay A; 20 μM ATP, 40 min incubation; read-out: SGK1 IC50
T1 construct: 125 μM full length SGK1 (Life Technologies Part #PR7358A); purchased Life Technologies PR7358A
T1 sequence (O00141 1-431): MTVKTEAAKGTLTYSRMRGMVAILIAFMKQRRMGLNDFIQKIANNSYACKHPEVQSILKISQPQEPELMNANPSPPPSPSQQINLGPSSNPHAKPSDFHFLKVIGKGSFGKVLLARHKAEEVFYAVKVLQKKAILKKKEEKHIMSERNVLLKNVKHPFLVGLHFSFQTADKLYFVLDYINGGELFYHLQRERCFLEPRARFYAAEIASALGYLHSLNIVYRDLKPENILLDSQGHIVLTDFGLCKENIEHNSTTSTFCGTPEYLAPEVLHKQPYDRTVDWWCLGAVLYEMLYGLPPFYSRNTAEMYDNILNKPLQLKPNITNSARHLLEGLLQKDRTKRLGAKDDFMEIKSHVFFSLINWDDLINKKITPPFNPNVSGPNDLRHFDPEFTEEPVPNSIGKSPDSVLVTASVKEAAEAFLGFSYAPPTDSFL

Structure (SMILES)	IC50
Nc1ncnn2c(-c3ccnc(F)c3)cc(N3CCC[C@@H](NC(=O)Cc4ccc(Cl)s4)C3)c12 [Example 151, (R)-N-(1-(4-amino-7-(2-fluoropyridin-4-yl)pyrrolo[2,1-f][1,2,4]triazin-5-yl)piperidin-3-yl)-2-(5-chlorothiophen-2-yl)acetamide]	285 nM
CC(=O)N1CC=C(c2cc(N3CCC[C@@H](NC(=O)c4ccc5ncsc5c4)C3)c3c(N)ncnn23)C1 [Example 452, (R)-N-(1-(7-(1-acetyl-2,5-dihydro-1H-pyrrol-3-yl)-4-aminopyrrolo[2,1-f][1,2,4]triazin-5-yl)piperidin-3-yl)benzo[d]thiazole-6-carboxamide]	198 nM
Nc1ncnn2c(-c3cnc4ncnn4c3)cc(N3CCC[C@@H](NC(=O)c4ccc(Cl)s4)C3)c12 [Example 246]	13 nM
CC(=O)N1CC=C(c2cc(N3CCC[C@@H](NC(=O)c4sc(C(F)F)cc4C4CCN(C(C)C)CC4)C3)c3c(N)ncnn23)C1 [Example 394, (R)-N-(1-(7-(1-acetyl-2,5-dihydro-1H-pyrrol-3-yl)-4-aminopyrrolo[2,1-f][1,2,4]triazin-5-yl)piperidin-3-yl)-5-(difluoromethyl)-3-(1-isopropylpiperidin-4-yl)thiophene-2-]	249 nM
Cc1cnc(C(=O)N[C@@H]2CCCN(c3cc(-c4ccc(S(C)(=O)=O)cc4)n4ncnc(N)c34)C2)s1 [Example 101, (R)-N-(1-(4-amino-7-(4-(methylsulfonyl)phenyl)pyrrolo[2,1-f][1,2,4]triazin-5-yl)piperidin-3-yl)-5-methylthiazole-2-carboxamide]	21 nM
N#CC1(C(=O)N2CC=C(c3cc(N4CCC[C@@H](NC(=O)c5sc(Cl)cc5OCCN5CCOCC5)C4)c4c(N)ncnn34)C2)CC1 [Example 264, (R)-N-(1-(4-amino-7-(1-(1-cyanocyclopropane-1-carbonyl)-2,5-dihydro-1H-pyrrol-3-yl)pyrrolo[2,1-f][1,2,4]triazin-5-yl)piperidin-3-yl)-5-chloro-3-(2-morpholinoethoxy)thiophene-2-carboxamide]	12 nM
CN(C)CCOc1cc(Cl)sc1C(=O)N[C@@H]1CCCN(c2cc(C3=CCNC3)n3ncnc(N)c23)C1 [Example 171, (R)—N-(1-(4-amino-7-(2,5-dihydro-1H-pyrrol-3-yl)pyrrolo[2,1-f][1,2,4]triazin-5-yl)piperidin-3-yl)-5-chloro-3-(2-(dimethylamino)ethoxy)thiophene-2-carboxamide, 3 TFA]	16 nM
CC(=O)N1CC=C(c2cc(N3CCC[C@@H](NC(=O)c4sc(C(F)F)cc4C4CCN(C)C4)C3)c3c(N)ncnn23)C1 (stereo partly drawn) [Example 406, N-((R)-1-(7-(1-acetyl-2,5-dihydro-1H-pyrrol-3-yl)-4-aminopyrrolo[2,1-f][1,2,4]triazin-5-yl)piperidin-3-yl)-5-(difluoromethyl)-3-(1-methylpyrrolidin-3-yl)thiophene-2-carboxamide]	309 nM
Nc1ncnn2c(-c3ccnc(C(F)F)c3)cc(N3CCC[C@@H](NC(=O)c4sc(Cl)cc4O)C3)c12 [Example 481, (R)-N-(1-(4-amino-7-(2-(difluoromethyl)pyridin-4-yl)pyrrolo[2,1-f][1,2,4]triazin-5-yl)piperidin-3-yl)-5-chloro-3-hydroxythiophene-2-carboxamide]	16 nM

Further lines, results first:

IC50	Structure (SMILES)
434 nM	COc1ncc(-c2cc(N3CCC[C@@H](NC(=O)c4cccc(N5CCN(C)CC5)n4)C3)c3c(N)ncnn23)cn1 [Example 788, (R)-N-(1-(4-amino-7-(2-methoxypyrimidin-5-yl)pyrrolo[2,1-f][1,2,4]triazin-5-yl)piperidin-3-yl)-6-(4-methylpiperazin-1-yl)picolinamide]
39 nM	N#Cc1ncc(-c2cc(N3CCC[C@@H](NC(=O)c4ccc(C(F)F)s4)C3)c3c(N)ncnn23)cn1 [Example 502, (R)-N-(1-(4-amino-7-(2-cyanopyrimidin-5-yl)pyrrolo[2,1-f][1,2,4]triazin-5-yl)piperidin-3-yl)-5-(difluoromethyl)thiophene-2-carboxamide]
53 nM	COC(=O)N1CC=C(c2cc(N3CCC[C@@H](NC(=O)c4n[nH]c5ccc(N)cc45)C3)c3c(N)ncnn23)C1 [Example 689, methyl (R)-3-(4-amino-5-(3-(5-amino-1H-indazole-3-carboxamido)piperidin-1-yl)pyrrolo[2,1-f][1,2,4]triazin-7-yl)-2,5-dihydro-1H-pyrrole-1-carboxylate]
72 nM	CC(=O)N1CC=C(c2cc(N3CCC[C@@H](NC(=O)c4cccc(N5CCC(C)(O)CC5)n4)C3)c3c(N)ncnn23)C1 [Example 772, (R)-N-(1-(7-(1-acetyl-2,5-dihydro-1H-pyrrol-3-yl)-4-aminopyrrolo[2,1-f][1,2,4]triazin-5-yl)piperidin-3-yl)-6-(4-hydroxy-4-methylpiperidin-1-yl)picolinamide]
5 nM	CC(=O)N1CC=C(c2cc(N3CCC[C@@H](NC(=O)c4csc(Cl)c4)C3)c3c(N)ncnn23)C1 [Example 719]
57 nM	CC(C)(C)OC(=O)N1CCC(Oc2c(C(=O)N[C@@H]3CCCN(c4cc(-c5ccc(C#N)nc5)n5ncnc(N)c45)C3)sc3ccccc23)CC1 [Example 654, tert-butyl (R)-4-((2-((1-(4-amino-7-(6-cyanopyridin-3-yl)pyrrolo[2,1-f][1,2,4]triazin-5-yl)piperidin-3-yl)carbamoyl)benzo[b]thiophen-3-yl)oxy)piperidine-1-carboxylate]
20 nM	CC(=O)N1CC=C(c2cc(N3CCC[C@@H](NC(=O)c4cccc(N5CC6(CN(C)C6)C5)n4)C3)c3c(N)ncnn23)C1 [Example 784, (R)-N-(1-(7-(1-acetyl-2,5-dihydro-1H-pyrrol-3-yl)-4-aminopyrrolo[2,1-f][1,2,4]triazin-5-yl)piperidin-3-yl)-6-(6-methyl-2,6-diazaspiro[3.3]heptan-2-yl)picolinamide]
11 nM	CC(=O)N1CC=C(c2cc(N3CCCC(NC(=O)c4sc(Cl)cc4OC4CC5CC4CN5C(C)C)C3)c3c(N)ncnn23)C1 (single isomer, unassigned) [Example 610]
4 nM	CC(=O)N1CC=C(c2cc(N3CCC[C@@H](NC(=O)c4sc(Cl)cc4OC4CCNCC4F)C3)c3c(N)ncnn23)C1 (stereo partly drawn) [Example 601, N-((R)-1-(7-(1-acetyl-2,5-dihydro-1H-pyrrol-3-yl)-4-aminopyrrolo[2,1-f][1,2,4]triazin-5-yl)piperidin-3-y1)-5-chloro-3-((3-fluoropiperidin-4-yl)oxy)thiophene-2-carboxamide]
90 nM	CC(=O)N1CC=C(c2cc(N3CCC[C@@H](NC(=O)c4ccc(-c5cncnc5)s4)C3)c3c(N)ncnn23)C1 [Example 548, (R)-N-(1-(7-(1-acetyl-2,5-dihydro-1H-pyrrol-3-yl)-4-aminopyrrolo[2,1-f][1,2,4]triazin-5-yl)piperidin-3-yl)-5-(pyrimidin-5-yl)thiophene-2-carboxamide]
16 nM	CC(=O)N1CC=C(c2cc(N3CCC[C@@H](NC(=O)c4cccc(OC5CCN(C)CC5)n4)C3)c3c(N)ncnn23)C1 [Example 709, (R)-N-(1-(7-(1-acetyl-2,5-dihydro-1H-pyrrol-3-yl)-4-aminopyrrolo[2,1-f][1,2,4]triazin-5-yl)piperidin-3-yl)-6-((1-methylpiperidin-4-yl)oxy)picolinamide]
